The source of these data is patent publication US11919854B2, “P2RX7 modulators in therapy” (Centre national de la recherche scientifique, priority 2018, dated 2024).

Data set [1] in a line: Plasmatic concentration after intraperitoneal administration (LC-MS/MS). It counts as in vivo, mice. As to conditions: ip. On the procedure:
B. HEI 3090 is found within plasma until 18 h after intraperitoneal administration. Intraperitoneal administration of HEI-3090 (0.166 mg/mL in 10% DMSO) was performed and serum was taken at 0, 10, 20, 30, […], 120, 240, 360, 1080 and 1440 min. Plasmatic concentration was determined by LC-MS/MS and reached a maximum of 2.5 μM.
Stability was studied in the mouse liver microsome system—and human, not shown—(FIG. 13A) and directly in vivo, for HEI3090 molecule (FIG. 13B). These experiments highlighted that HEI3090 is found at a concentration of maximum 2.5 μM in the plasma of mice injected with HEI3090 (ip, 1.5 mg/kg in 10% DMSO).

Data set [2] deals with LLC (Lewis Lung Cancer) cells. The data set is described as follows: Syngeneic tumor mice model, LLC subcutaneous. It counts as in vivo, C57BL6 mice. On the procedure: 5×10^5 LLC or 5×10^5 B16F10 cells were injected sub cutaneously in the right flank of C57BL6 mice. Mice received HEI3090 (ip, 2.5 mg/kg in 10% DMSO/PBS) daily or placebo (10% DMSO/PBS). A,C. incidence of tumor appearance B,D. Tumor size (mm2) and tumor weight at sacrifice day (J12). E. HEI-treated tumors are more immunogenic. Expression of CMH1 (H2K^b/D^b) and PD-L1 by LLC (black) and B16F10 (grey) tumors is shown in dot plots. Numbers highlighted the percentage of tumor cells positive for H2K^b/D^b and PD-L1. […] F. CD-45 positive infiltrates is increased in LLC and B16F10 tumors. *, p<0.05; **, p<0.01; ***, p<0.001 Mann-Whitney test.
5×10^5 LLC or 5×10^5 B16F10 cells were injected sub cutaneously in the right flank of C57BL6 mice. Mice received HEI3090 (ip, 2.5 mg/kg in 10% DMSO/PBS) daily or placebo (10% DMSO/PBS). A. The quantity of immunosuppressive cells is reduced. Dot plot of representative experiment. Numbers highlighted the percentage of M-MDSC and PMN-MDSC. […] B. The quantity of effector T cells ([…], NK, CD4+) is increased.
5×10^5 LLC cells were injected sub cutaneously in the right flank of C57BL6 mice. Mice received HEI3090 (ip, 2.5 mg/kg in 10% DMSO/PBS) alone or in presence of anti CD4 antibody daily or placebo (10% DMSO/PBS). A. Tumor growth from the 3 groups was followed daily. B. tumor weight at sacrifice day (J12). *, p<0.05; ****, p<0.0001 (Mann-Whitney test).
a, b. Phenotypic flow cytometry analyses of tumor infiltrating cells. LLC tumors were collected at day 12. Proportion of PMN-MDSC among CD45+ within LLC tumors from mice treated with vehicle or HEI3090 (a). Ratio of NK, CD4+ or CD8+ T cells on PMN-MDSC (b).
c, d. 5.105 LLC were injected s.c. into the flank of C57BL6/J mice. Then mice were treated i.p. with vehicle (PBS, 10% DMSO) or with HEI3090 (1.5 mg/kg in PBS, 10% DMSO) or with HEI3090 and depleting antibody against NK1.1, CD4+ or CD8+ T cells. Antibodies were administered i.p every 3 days (200 μg/injection). Spaghetti plots and tumor weight at day 12 (d). Each curve represents one mouse.
e-g Functional flow cytometry analyses of tumor infiltrating immune cells or splenocytes. Tumors were stimulated with PMA/ionomycine and production of IFN-γ and IL-10 were simultaneously analyzed in CD45+, NK, CD4+ or CD8+ T cells. Graphs shown proportion of IFN-γ producing cells into CD45+ cells or geometric mean of fluorescence (e). Representative dot plots of IFN-γ and IL-10 staining into TILs (f). Ratios of IFN-γ on IL-10 positive cells on each TIL. Degranulation assay of splenocytes from LLC tumor bearing mice treated with vehicle or HEI3090 (g) Splenocytes were re-stimulated with LLC in vitro and CD107a positive cells in NK, CD4+ and CD8+ T cells were represented.
a. Flow cytometry analyses of P2RX7 expression among conventional dendritic cells CD4+ or CD8+ within LLC tumors.
b. Protein levels of IL-1p and IL-18 in serum of LLC tumor bearing mice treated with vehicle or HEI3090, determined by ELISA.
c. 5.105 LLC were injected s.c. into the flank of C57BL6/J mice. Then mice were treated i.p. with vehicle (PBS, 10% DMSO) or with HEI3090 (1.5 mg/kg in PBS, 10% DMSO) or with HEI3090 and neutralizing antibody against IL-1p or IL-18 from day 1 to day 12. Antibodies were administered i.p every 3 days (200 μg/injection).
e. Effect of HEI3090 on tumor growth in IL-18 deficient mice (IL-18^−/−). 5.105 LLC were injected s.c. into the flank of IL-18^−/− mice. Mice were treated i.p. with vehicle (PBS, 10% DMSO) or with HEI3090 (1.5 mg/kg in PBS, 10% DMSO) from day 1 to day 12.
4.2. By killing tumoral cells, HEI3090 may represent a new anti-tumor treatment. To test this hypothesis, immunocompetent C57B16J mice were subcutaneously injected with 5×10^5 B16F10 or 5×10^5 LLC (Lewis Lung Cancer) cells and treated daily with HEI3090 (ip, 2.5 mg/kg in 10% DMSO/PBS) or placebo (10% DMSO/PBS). […]

The structures appear in SMILES notation.

As to `O=C(NCc1ccc(Cl)cc1Cl)[C@@H]1CCC(=O)N1C(=O)Nc1ccc(Cl)nc1` [HEI3090, (S)—N^1-(6-Chloropyridin-3-yl)-N^2-(2,4-dichlorobenzyl)-5-oxopyrrolidine-1,2-dicarboxamide], the “time found within plasma after intraperitoneal administration” value in data set [1] (0.166 mg/mL in 10% DMSO) is ≤ 18 h. The maximum plasmatic concentration in data set [1] (mice, 1.5 mg/kg in 10% DMSO (0.166 mg/mL in 10% DMSO)) stood at 2.5 µM. In addition, the “IL18 in plasma and within the tumor” value in data set [2] (ELISA in serum, IHC in tumors) is “overexpressed”. The “immune cells required for anti-tumor effect” value in data set [2] (HEI3090 1.5 mg/kg ip with depleting antibody against NK1.1, CD4+ or CD8+ T cells) is “both NK and CD4+ cells are required”. In addition, the “IFN-γ expression of NK and CD4+ cells in tumor” value in data set [2] (HEI3090 1.5 mg/kg ip, flow cytometry) is reported as “expressed more IFN-γ”. For the same molecule, the “immunosuppressive cells (PMN-MDSC) in tumor infiltrates” value in data set [2] (HEI3090 ip 2.5 mg/kg daily) is recorded as “less PMN-MDSC”. The same molecule returned a tumors weight in data set [2] (HEI3090 ip 2.5 mg/kg daily (placebo 295 mg)) of 80 mg. In addition, the “reduction of tumors weight” value in data set [2] (HEI3090 ip 2.5 mg/kg daily, vs placebo) is reported as 4 folds. Besides, the “tumor size with depletion of T CD4+ lymphocytes” value in data set [2] (HEI3090 plus anti-T CD4+ antibody) is “bigger than tumors from the HEI3090 group, and smaller than tumors from the placebo group”. For the same molecule, in data set [2] (blocking IL18 antibody and Il18−/− mice, HEI3090 1.5 mg/kg ip), the “tumor growth without IL18” value was “did not block tumor growth anymore”. In data set [2] (flow cytometry), the “P2RX7 expression on dendritic cells within tumors” value is on record as “increased P2RX7 expression on dendritic cells”.
